Measurements from paper PMC11217349, “Development of Nurr1 agonists from amodiaquine by scaffold hopping and fragment growing” (Communications Chemistry, 2024).
“And” between values parts separate entries of the source, which are not always exact repeats. Equal values may be shown once. “Also recorded” adds a separate entry of the source.

Columns and labels:
[1] = tested on: HBEC-5i human brain endothelial cells; test: In vitro blood-brain-barrier model; format: in vitro ADME; conditions: HBEC-5i trans-well, 10 µM, 60 min
Experimental: Permeation of test compounds through a human brain endothelial cell barrier was evaluated using the Corning Costar 3470 Transwell Plate system (0.4 μm pore diameter with 6.5 mm inserts) and HBEC-5i cells (ATCC, CRL-3245). Filter inserts were coated one day before seeding with 50 μL 0.01% rat-tail collagen type I ([…], Sigma-Aldrich) in PBS. 60,000 HBEC-5i cells in 100 μL HBEC-5i-Medium (DMEM/F12 with 10% FCS and 40 μg/mL ECGS) were seeded after aspiration of the coating-supernatant in each insert with 600 μL HBEC-5i-Medium in each receiver well. After 24 h incubation at 37 °C with 5% CO2, the medium was exchanged to 600 μL T98G cell supernatant in receiver wells and 100 μL fresh HBEC-5i-Medium in inserts. The medium exchange was repeated every second day. On day 7 after seeding, the medium in the receiver wells was replaced by 600 μL Hank's balanced salt solution (HBSS) containing 10 mM HEPES and 0.1% DMSO and 100 μL test compound mixtures (antipyrine and test compound; each at 10 μM) in HBSS containing 10 mM HEPES and 0.1% DMSO were added to inserts. After 60 min incubation, 100 μL samples were taken from the receiver wells and diluted in 400 μL (75%/25% A/B; A=Formic acid 0.1% in water; B = Acetonitrile). Test compound concentrations in the samples were determined by LC-MS/MS on an API-3200-QTrap (Sciex) equipped with an Agilent Technologies 1100 series setup including a binary pump […]), and a Shimadzu […] autosampler under the control of Analyst 1.6 (Sciex). […] B) for 6 min going to (50%:50%) after 8 min. 5 μL of aspirated supernatant diluted in mobile phase starting conditions was loaded onto the column, separated at a flow rate of 400 μL/min, and quantified per Area of MRM (multiple reaction monitoring).

LXRα = target: T1, LXRα (Homo sapiens, UniProt Q13133); test: Gal4-hybrid selectivity assay LXRα; format: cell-based; conditions: 3 µM; reference agonist = 100%
T1 construct: chimeric receptors composed of the Gal4-DBD and the hinge region and LBD; expressed in transfected cells; host or cells: HEK293T
T1 sequence (Q13133 209-447 limits assumed): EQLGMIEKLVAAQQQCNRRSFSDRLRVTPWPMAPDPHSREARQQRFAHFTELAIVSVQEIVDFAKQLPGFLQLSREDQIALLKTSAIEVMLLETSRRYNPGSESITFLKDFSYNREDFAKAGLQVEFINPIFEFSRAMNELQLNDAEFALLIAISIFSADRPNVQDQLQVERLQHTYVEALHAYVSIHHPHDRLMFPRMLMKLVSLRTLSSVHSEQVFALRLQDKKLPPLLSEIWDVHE
Experimental: (§1) Nurr1 modulation was determined in a Gal4 hybrid reporter gene assay in HEK293T cells (German Collection of Microorganisms and Cell Culture GmbH, DSMZ) using pFR-Luc (Stratagene, La Jolla, CA, USA; reporter), pRL-SV40 (Promega, Madison, WI, USA; internal control) and pFA-CMV-hNurr1-LBD[14], coding for the hinge region and ligand binding domain of the canonical isoform of human Nurr1. […] After 24 h, the medium was changed to Opti-MEM without supplements, and cells were transiently transfected using Lipofectamine LTX reagent (Invitrogen, Carlsbad, CA, USA) according to the manufacturer’s protocol. Five hours after transfection, cells were incubated with the test compounds in Opti-MEM supplemented with penicillin (100 U/mL), streptomycin (100 μg/mL), and 0.1% DMSO for 16 h before luciferase activity was measured using the Dual-Glo Luciferase Assay System (Promega) according to the manufacturer’s protocol on a Tecan Spark luminometer (Tecan Deutschland GmbH, Crailsheim, Germany). Firefly luminescence was divided by Renilla luminescence and multiplied by 1000 resulting in relative light units (RLU) to normalize for transfection efficiency and cell growth. Fold activation was obtained by dividing the mean RLU of the test compound by the mean RLU of the untreated control. All samples were tested in at least three biologically independent experiments in duplicates. […]

THRα = target: T2, THRα (Homo sapiens, UniProt P10827); test: Gal4-hybrid selectivity assay THRα; format: cell-based; conditions: 3 µM; reference agonist = 100%
T2 construct: chimeric receptors composed of the Gal4-DBD and the hinge region and LBD; expressed in transfected cells; host or cells: HEK293T
T2 sequence (P10827 128-410 isoform P10827-2 limits assumed): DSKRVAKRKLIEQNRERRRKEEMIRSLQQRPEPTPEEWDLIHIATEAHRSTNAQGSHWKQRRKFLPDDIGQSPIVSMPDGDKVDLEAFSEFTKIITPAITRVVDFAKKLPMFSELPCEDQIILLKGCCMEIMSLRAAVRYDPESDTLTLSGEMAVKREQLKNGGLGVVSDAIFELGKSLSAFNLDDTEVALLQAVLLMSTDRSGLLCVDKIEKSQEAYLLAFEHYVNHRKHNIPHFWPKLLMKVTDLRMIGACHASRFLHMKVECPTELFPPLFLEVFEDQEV
Experimental: as §1

[2] = Parallel artificial membrane permeability assay (PAMPA); format: in vitro ADME; conditions: 500 µM donor, pH 7.4, 18 h
Experimental: Passive lipid membrane diffusion of test compounds was determined using Merck Millipore MultiScreen Filter Plates (0.45 μm pore diameter, hydrophobic PVDF). The filter inserts were coated with 1% L-α-phosphatidylcholine (Fluka Analytical) in n-dodecan. The test compounds were then added to the donor compartment at a final concentration of 500 µM in a phosphate buffer pH 7.4 containing 5% DMSO with a total volume of 150 µL. The acceptor compartment was filled with 300 µL PBS containing 5% DMSO. Additionally, three equilibrium samples were prepared by directly adding the donor solution to the acceptor compartment for the calculation of log Pe values. The filter plates were incubated for 18 h before the test compound concentrations in the acceptor compartments and in the equilibrium, samples were determined by UV absorbance at 320 nm (34), 360 nm (36), 310 nm (41), or 315 nm (42) with external calibration in a 96 well quartz plate on a SpectraMax M2e microplate reader (Molecular Devices). logPe values were calculated according to the formula published by Sugano and colleagues.

PPARγ = target: T3, PPARγ (Homo sapiens, UniProt P37231); test: Gal4-hybrid selectivity assay PPARγ; format: cell-based; conditions: 3 µM; reference agonist = 100%
T3 construct: chimeric receptors composed of the Gal4-DBD and the hinge region and LBD; expressed in transfected cells; host or cells: HEK293T
T3 sequence (P37231 238-503 limits assumed): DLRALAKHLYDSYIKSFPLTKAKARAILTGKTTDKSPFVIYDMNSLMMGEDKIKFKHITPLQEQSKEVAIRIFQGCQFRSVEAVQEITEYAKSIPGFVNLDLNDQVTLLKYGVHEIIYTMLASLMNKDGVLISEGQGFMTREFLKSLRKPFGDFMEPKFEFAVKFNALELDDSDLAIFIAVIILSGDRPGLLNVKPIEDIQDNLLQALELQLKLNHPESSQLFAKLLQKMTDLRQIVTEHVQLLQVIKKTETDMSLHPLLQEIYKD
Experimental: as §1

N27 rat neurons = test: WST-8 cytotoxicity assay, N27; format: cell-based
Experimental: Each sample was prepared in four biologically independent repeats. After incubation for 24 h, the medium was refreshed and 10% water-soluble tetrazolinum salt (Cell Counting Kit-8, MedChemExpress) was added to assess metabolic activity. After 4 h, absorbance was measured at 450 nm using a Tecan Spark Cyto instrument (Tecan).

VDR = target: T4, VDR (Homo sapiens, UniProt P11473); test: Gal4-hybrid selectivity assay VDR; format: cell-based; conditions: 3 µM; reference agonist = 100%
T4 construct: chimeric receptors composed of the Gal4-DBD and the hinge region and LBD; expressed in transfected cells; host or cells: HEK293T
T4 sequence (P11473 127-423 limits assumed): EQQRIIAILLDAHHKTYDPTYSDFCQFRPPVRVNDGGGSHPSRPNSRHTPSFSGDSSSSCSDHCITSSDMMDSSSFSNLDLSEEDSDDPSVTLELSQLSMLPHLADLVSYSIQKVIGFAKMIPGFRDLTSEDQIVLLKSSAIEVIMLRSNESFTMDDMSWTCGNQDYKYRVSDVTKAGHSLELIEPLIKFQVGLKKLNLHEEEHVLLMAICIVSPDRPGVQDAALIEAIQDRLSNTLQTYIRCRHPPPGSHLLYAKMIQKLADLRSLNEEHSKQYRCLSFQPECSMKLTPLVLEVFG

PPARα = target: T5, PPARα (Homo sapiens, UniProt Q07869); test: Gal4-hybrid selectivity assay PPARα; format: cell-based; conditions: 3 µM; reference agonist = 100%
T5 construct: chimeric receptors composed of the Gal4-DBD and the hinge region and LBD; expressed in transfected cells; host or cells: HEK293T
T5 sequence (Q07869 239-466 limits assumed): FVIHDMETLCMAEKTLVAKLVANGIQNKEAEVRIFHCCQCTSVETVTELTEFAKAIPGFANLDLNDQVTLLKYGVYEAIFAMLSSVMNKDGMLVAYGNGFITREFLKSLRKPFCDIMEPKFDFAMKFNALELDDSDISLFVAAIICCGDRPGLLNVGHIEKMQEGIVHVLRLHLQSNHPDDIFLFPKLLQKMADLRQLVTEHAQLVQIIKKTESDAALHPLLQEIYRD
Experimental: as §1

RXRα = target: T6, RXRα (Homo sapiens, UniProt P19793); test: Gal4-hybrid selectivity assay RXRα; format: cell-based; conditions: 3 µM; reference agonist = 100%
T6 construct: chimeric receptors composed of the Gal4-DBD and the hinge region and LBD; expressed in transfected cells; host or cells: HEK293T
T6 sequence (P19793 227-458 limits assumed): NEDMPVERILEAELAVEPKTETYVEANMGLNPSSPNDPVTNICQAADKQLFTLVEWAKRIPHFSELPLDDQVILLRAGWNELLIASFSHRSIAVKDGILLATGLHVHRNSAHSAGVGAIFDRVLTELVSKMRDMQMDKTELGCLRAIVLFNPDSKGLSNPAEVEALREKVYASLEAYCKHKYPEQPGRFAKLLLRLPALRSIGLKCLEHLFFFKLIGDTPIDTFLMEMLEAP
Experimental: as §1

FXR = target: T7, FXR (Homo sapiens, UniProt Q96RI1); test: Gal4-hybrid selectivity assay FXR; format: cell-based; conditions: 3 µM; reference agonist = 100%
T7 construct: chimeric receptors composed of the Gal4-DBD and the hinge region and LBD; expressed in transfected cells; host or cells: HEK293T
T7 sequence (Q96RI1 262-486 limits assumed): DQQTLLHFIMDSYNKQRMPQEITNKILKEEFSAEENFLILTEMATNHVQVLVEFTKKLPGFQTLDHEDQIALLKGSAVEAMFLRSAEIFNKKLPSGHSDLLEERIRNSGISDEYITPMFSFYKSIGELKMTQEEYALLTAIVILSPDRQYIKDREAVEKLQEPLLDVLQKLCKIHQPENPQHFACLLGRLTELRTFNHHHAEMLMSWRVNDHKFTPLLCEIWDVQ
Experimental: as §1

RARα = target: T8, RARα (Homo sapiens, UniProt P10276); test: Gal4-hybrid selectivity assay RARα; format: cell-based; conditions: 3 µM; reference agonist = 100%
T8 construct: chimeric receptors composed of the Gal4-DBD and the hinge region and LBD; expressed in transfected cells; host or cells: HEK293T
T8 sequence (P10276 183-417 limits assumed): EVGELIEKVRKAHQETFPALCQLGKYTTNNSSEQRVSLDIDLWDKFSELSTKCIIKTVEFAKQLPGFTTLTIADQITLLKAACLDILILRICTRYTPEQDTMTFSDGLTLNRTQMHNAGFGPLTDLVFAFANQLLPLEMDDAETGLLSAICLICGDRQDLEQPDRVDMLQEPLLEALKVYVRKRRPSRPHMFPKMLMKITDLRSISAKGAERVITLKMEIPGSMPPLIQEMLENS
Experimental: as §1

PPARδ = target: T9, PPARδ (Homo sapiens, UniProt Q03181); test: Gal4-hybrid selectivity assay PPARδ; format: cell-based; conditions: 3 µM; reference agonist = 100%
T9 construct: chimeric receptors composed of the Gal4-DBD and the hinge region and LBD; expressed in transfected cells; host or cells: HEK293T
T9 sequence (Q03181 211-439 limits assumed): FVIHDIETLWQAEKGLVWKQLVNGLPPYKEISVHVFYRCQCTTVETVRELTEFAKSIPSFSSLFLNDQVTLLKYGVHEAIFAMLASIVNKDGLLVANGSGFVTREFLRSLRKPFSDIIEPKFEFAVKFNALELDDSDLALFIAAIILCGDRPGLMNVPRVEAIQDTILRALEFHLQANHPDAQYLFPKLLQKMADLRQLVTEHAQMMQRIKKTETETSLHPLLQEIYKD
Experimental: as §1

Cc1nc2c(Cl)cccn2c1NC(=O)c1ccc(-c2ccc(N(C)C)cc2)o1 [Compound 36, N-(8-Chloro-2-methylimidazo[1,2-a]pyridin-3-yl)-5-(4-(dimethylamino)phenyl)furan-2-carboxamide]
logPe (BBB) [1]: -4.64 and -4.729 and -4.725 and -4.687 and -4.681 and -4.749
% rel. act. LXRα (LXRα): 2.022% and 2.102% and 1.670%
% rel. act. THRα (THRα): 0.070% and 0.082% and 0.063%
logPe (PAMPA) [2]: -5.647 and -5.642 and -5.6601 and -5.6738
% rel. act. PPARγ (PPARγ): 10.373% and 9.960% and 8.281%
rel. absorbance (450 nm) (N27 rat neurons; N27, 10 µM, WST-8, vs DMSO ctrl): 94% and 99% and 90% and 91%
toxicity (WST-8) (N27 rat neurons; N27 rat neurons, 24 h): no toxic effect; also recorded: non-toxic; also recorded: inactive (10 µM)
% rel. act. VDR (VDR): 4.840% and 6.730% and 2.930%
% rel. act. PPARα (PPARα): 1.669% and 2.630% and 1.870%
% rel. act. RXRα (RXRα): 0.348% and 0.360% and 0.470%
% rel. act. FXR (FXR): 0.311% and 0.333% and 0.363%
% rel. act. RARα (RARα): 0.175% and 0.388% and 0.324%
% rel. act. PPARδ (PPARδ): 4.502% and 5.181% and 2.926%
